What all share (format): biochemical
One experiment has as its target SIRT6 WT (Homo sapiens, UniProt Q8N6T7). In words: Steady-state deacetylation rate of SIRT6 WT with or without CL5D. Conditions: SIRT6 WT 1 μM, H3K9ac 40 μM, CL5D 50 μM, 25 minutes. On the procedure: (§1) All sirtuin deacylation assays were carried out at 37° C. in 20 mM potassium phosphate pH 7.5 with 0.5 mM NAD^+, 10% DMSO, and 20 μM H3K9ac or H3K9myr peptides, unless otherwise noted in legend, and quenched by the addition of 2% TFA final. Steady-state reactions were constrained to less than 20% substrate turnover to prevent product inhibition. A variety of times were required to monitor SIRT6 deacetylation (2-60 minutes) under this restraint given the ability to strongly activate catalysis. In these cases, specific activities were determined and either reported as is or as fold-activation of specific activity. Deacylation reactions were analyzed by reversed phase high-performance liquid chromatography on a Kinetex C18 column (100 Å, 100×4.6 mm, 2.6 μm, Phenomenex) by monitoring the formation of the deacylated product at 214 nm. Deacetylation reactions were analyzed using a gradient of 33-100% B (30% acetonitrile with 0.05% TFA) in 8 min at 1.6 mL min^−1. Demyristoylation reactions were analyzed using a gradient of 3 to 100% B (acetonitrile with 0.05% TFA) in 10 min at 1.6 mL min^−1. The product and substrate peaks were quantified and ratio of these allowed for quantification of product formation. Three independent experiments were performed for each condition with averages being plotted and error bars representing the standard deviation of these replicates. […]

The target in a further experiment is SIRT6 K160A (Homo sapiens, UniProt Q8N6T7, K160A). Put plainly: Steady-state deacetylation rate of SIRT6 K160A with or without CL5D. To be noted: SIRT6 K160A 1 μM, H3K9ac 40 μM, CL5D 50 μM, 25 minutes. On the procedure:
as §1

For the next experiment, the target named is SIRT6 (Homo sapiens, UniProt Q8N6T7). In words: Burst kinetic analysis of SIRT6 deacetylation. To be noted: SIRT6 10 μM, 400 μM H3K9ac peptide, 500 μM NAD+. On the procedure:
SIRT6 (10 μM) was mixed with either H3K9ac peptide (400 μM) or NAD^+ (500 μM) in 20 mM potassium phosphate pH 7.5 and preheated to 37° C. for 3 minutes. Reactions were initiated either through the addition of NAD^+ (500 μM final) or H3K9ac peptide (400 μM final) and quenched after 10-1800 seconds by the addition of 3% TFA final. For each experiment, a control reaction in which H3K9ac peptide was excluded was collected at each timepoint and subtracted from corresponding experimental reactions to control for NAD^+ degradation. Nicotinamide and deacetylated peptide product were quantified by reverse-phase HPLC as described in the rapid quench flow kinetics methods section.
To further dissect the catalytic step(s) in kcat/Km,H3K9ac that are enhanced in the presence of activator, reaction conditions were set up to identify the existence of product ‘bursts’ during the first catalytic turnover. High concentrations of SIRT6 (10 μM) in the presence of 400 μM H3K9ac peptide were rapidly mixed with 500 μM NAD^+, and after an acid quench at different times, the products nicotinamide and deacetylated peptide were resolved and quantified by HPLC. […] The order of substrate mixing had no effect on the product curves.

SIRT6, sequence (Q8N6T7 whole entry): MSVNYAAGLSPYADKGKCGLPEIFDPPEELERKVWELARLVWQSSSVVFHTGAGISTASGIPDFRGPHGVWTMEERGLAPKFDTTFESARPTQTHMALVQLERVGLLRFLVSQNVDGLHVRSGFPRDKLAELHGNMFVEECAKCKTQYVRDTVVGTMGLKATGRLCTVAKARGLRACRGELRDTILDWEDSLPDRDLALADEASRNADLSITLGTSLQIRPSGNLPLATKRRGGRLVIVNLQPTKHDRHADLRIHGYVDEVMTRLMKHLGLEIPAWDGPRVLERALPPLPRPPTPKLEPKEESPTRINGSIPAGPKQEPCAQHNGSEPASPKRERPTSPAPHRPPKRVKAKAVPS
SIRT6 WT, sequence (Q8N6T7 whole entry): as above
SIRT6 K160A, sequence (Q8N6T7 whole entry K160A): as the sequence (Q8N6T7 whole entry) above, with K160A counted along it

For the molecule `O=C(O)c1ccc2c(c1)C(=O)N(c1ccc(N(C(=O)c3c(Cl)cc(Cl)cc3Cl)C(=O)c3c(Cl)cc(Cl)cc3Cl)c(Cl)c1)C2=O` [CL-5D, 2-(3-chloro-4-(2,4,6-trichloro-N-(2,4,6-trichlorobenzoyl)benzamido)phenyl)-1,3-dioxoisoindoline-5-carboxylic acid], the RateCL5D on SIRT6 WT worked out at 0.164 ± 0.008 µM/min; at SIRT6 K160A, 0.126 ± 0.006 µM/min. Moreover, the “rate enhancement in the presence of CL5D” value on SIRT6 is on record as 1.8 fold.

Source of the values: patent publication US12390447B2, “Sirtuin 6 protein deacylase (SIRT6) activators” (Wisconsin Alumni Research Foundation, priority 2019, dated 2025).
